According to patent publication US20160083397A1, “PARTHENOLIDE DERIVATIVES AND THEIR MODULATION OF PROCESSES CONTROLLED BY REGULATED TRANSLATION” (THE BOARD OF TRUSTEES OF THE UNIVERSITY OF ARKANSAS, priority 2013, published 2016):
Where “and” joins values, the source holds several entries; their conditions need not be identical. Equal entries are not always repeated.

Experiments:
[1] = tested on: SR; conditions: for GI50: SR, Leukemia
[2] = tested on: SW-620; conditions: for GI50: SW-620, Colon Cancer
[3] = tested on: CAKI-1; conditions: for GI50: CAKI-1, Renal Cancer
[4] = tested on: SF-295; conditions: for GI50: SF-295, CNS Cancer
[5] = tested on: SN12C; conditions: for GI50: SN12C, Renal Cancer
[6] = tested on: OVCAR-5; conditions: for GI50: OVCAR-5, Ovarian Cancer
[7] = tested on: UACC-257; conditions: for GI50: UACC-257, Melanoma
[8] = tested on: HOP-62; conditions: for GI50: HOP-62, Lung Cancer
[9] = tested on: A498; conditions: for GI50: A498, Renal Cancer
[10] = tested on: MCF7; conditions: for GI50: MCF7, Breast Cancer
[11] = tested on: SF-539; conditions: for GI50: SF-539, CNS Cancer
[12] = tested on: SK-MEL-5; conditions: for GI50: SK-MEL-5, Melanoma
[13] = tested on: NCI-H226; conditions: for GI50: NCI-H226, Lung Cancer
[14] = tested on: SK-MEL-2; test: NCI 60-cell line five dose screen: SK-MEL-2; conditions: SK-MEL-2, Melanoma
[15] = tested on: HT29; conditions: for GI50: HT29, Colon Cancer
[16] = tested on: MDA-MB-231/ATCC; conditions: for GI50: MDA-MB-231/ATCC, Breast Cancer
[17] = tested on: RPMI-8226; conditions: for GI50: RPMI-8226, Leukemia
[18] = tested on: U251; conditions: for GI50: U251, CNS Cancer
[19] = tested on: OVCAR-4; conditions: for GI50: OVCAR-4, Ovarian Cancer
[20] = tested on: SK-OV-3; conditions: for GI50: SK-OV-3, Ovarian Cancer
[21] = tested on: OVCAR-8; conditions: for GI50: OVCAR-8, Ovarian Cancer
[22] = tested on: DU-145; conditions: for GI50: DU-145, Prostate Cancer
[23] = tested on: NCI-H522; conditions: for GI50: NCI-H522, Lung Cancer
[24] = tested on: ACHN; test: NCI 60-cell line five dose screen: ACHN; conditions: Renal Cancer
[25] = tested on: HCT-15; conditions: for GI50: HCT-15, Colon Cancer
[26] = tested on: TK-10; test: NCI 60-cell line five dose screen: TK-10; conditions: TK-10, Renal Cancer
[27] = tested on: ACHN
[28] = tested on: RXF 393; test: NCI 60-cell line five dose screen: RXF 393; conditions: RXF 393, Renal Cancer
[29] = tested on: UACC-62
[30] = tested on: HCC-2998; test: NCI 60-cell line five dose screen: HCC-2998; conditions: HCC-2998, Colon Cancer

13-(2-iodoimidazole)parthenolide [PNR-5-65]
CC50 [1]: > 100 µM | GI50 [1]: 13.6 µM | CC50 [2]: 62.8 µM | GI50 [2]: 11.4 µM | CC50 [3]: 49.5 µM | GI50 [3]: 6.61 µM | CC50 [4]: > 100 µM | GI50 [4]: 32.1 µM | CC50 [5]: 84.1 µM | GI50 [5]: 17.7 µM | CC50 [6]: 52.5 µM | GI50 [6]: 13.7 µM | CC50 [7]: 53.9 µM | GI50 [7]: 12 µM | CC50 [8]: > 100 µM | GI50 [8]: 47.4 µM | CC50 [9]: > 100 µM | GI50 [9]: 45.2 µM | CC50 [10]: > 100 µM | GI50 [10]: 9.79 µM | CC50 [11]: 60.8 µM | GI50 [11]: 16.7 µM | CC50 [12]: 95.6 µM | GI50 [12]: 18.5 µM | CC50 [13]: 62.3 µM | GI50 [13]: 15.4 µM | GI50 [14]: 18.6 µM | CC50 ([14]; read-out: LC50): 66.1 µM | CC50 [15]: 61.5 µM | GI50 [15]: 17.6 µM | CC50 [16]: 59.6 µM | GI50 [16]: 16.4 µM | CC50 [17]: > 100 µM | GI50 [17]: 17 µM | CC50 [18]: > 100 µM | GI50 [18]: 36.7 µM | CC50 [19]: 60 µM | GI50 [19]: 13.2 µM | CC50 [20]: > 100 µM | GI50 [20]: 47.3 µM | CC50 [21]: 59.9 µM | GI50 [21]: 16.6 µM | CC50 [22]: 68.3 µM | GI50 [22]: 18.8 µM | CC50 [23]: 6.34 µM | GI50 [23]: 1.77 µM and 1.71 µM | GI50 [24]: 10.5 µM | CC50 [25]: 55.6 µM | GI50 [25]: 10.7 µM

(E)-13-(3-thiopheno)parthenolide [PNR-5-53]
CC50 [1]: > 100 µM | GI50 [1]: 20.7 µM | CC50 [2]: > 100 µM | GI50 [2]: 22.9 µM | GI50 [26]: 34.7 µM | CC50 ([26]; read-out: LC50): > 100 µM | CC50 [27]: > 100 µM | CC50 [3]: > 100 µM | GI50 [3]: 30.9 µM | CC50 [4]: > 100 µM | GI50 [4]: 28.5 µM | CC50 [5]: > 100 µM | GI50 [5]: 25.8 µM | CC50 [6]: > 100 µM | GI50 [6]: 48.1 µM | GI50 [28]: 18.1 µM | CC50 ([28]; read-out: LC50): > 100 µM | CC50 [7]: > 100 µM | GI50 [7]: 16.6 µM | CC50 [8]: > 100 µM | GI50 [8]: 35.8 µM | CC50 [9]: > 100 µM | GI50 [9]: 17.5 µM | CC50 [29]: 76.6 µM | GI50 ([29]; UACC-62, Melanoma): 13.8 µM | CC50 [10]: > 100 µM | GI50 [10]: 20 µM | GI50 [11]: 16.1 µM | CC50 [12]: 60.4 µM | GI50 [12]: 16.3 µM | CC50 [13]: > 100 µM | GI50 [13]: 30.2 µM | CC50 [15]: > 100 µM | GI50 [15]: 27 µM | CC50 [16]: 81.8 µM | GI50 [16]: 16 µM | CC50 [17]: > 100 µM | GI50 [17]: 19.7 µM | CC50 [18]: > 100 µM | GI50 [18]: 21.7 µM | CC50 [19]: > 100 µM | GI50 [19]: 24.3 µM | CC50 [20]: > 100 µM | GI50 [20]: 44.9 µM | CC50 [21]: > 100 µM | GI50 [21]: 26.9 µM | CC50 [22]: > 100 µM | GI50 [22]: 25.7 µM | CC50 [23]: 59.7 µM | GI50 [23]: 5.44 µM | GI50 [24]: 32.8 µM | GI50 [30]: 33.8 µM | CC50 ([30]; read-out: LC50): > 100 µM | CC50 [25]: > 100 µM | GI50 [25]: 22.6 µM
